Test results taken from PubChem BioAssay AID179 (DTP/NCI, 2004).
Active and inactive are the calls of the source.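 Rule for the calls: active = compounds giving half or more protection of infected cells from virus-caused growth loss, again on retest; inactive = the rest.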 Where a SMILES comes first, the peptide text is derived from it.

System: CEM cells HIV-1 protection, formazan growth assay
Assay: NCI AIDS Antiviral Assay
Conditions: for IC50: measured here: growth of uninfected CEM cells
Summary of the method: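 Soluble formazan readout of cell growth; CEM cells ± HIV-1; 5 drug concs. ≥50% protection → retest; ≥50% again = moderately active; reproducible 100% = confirmed active.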

| SMILES | outcome | EC50 [µM] | IC50 [µM] |
| --- | --- | --- | --- |
| O=C(O)CCNS(=O)(=O)c1ccc([N+](=O)[O-])cc1 | inactive |  |  |
| O=c1c2c(oc3cc(OCC4CO4)ccc13)CCC2 (stereo not drawn) |  | > 200 | 50.1 |
| Cc1cc(=O)n2c(nc3cc(C)c(C)cc32)s1 |  | > 200 | > 200 |
| CCCC(=O)NC(NC1CCCCC1)(C(=O)OCC)C(F)(F)F (stereo not drawn) |  | 191 | > 200 |
| C=C(C)[C@H]1C2=CC(C(=O)OC)=C(C[C@H](C(=C)C)[C@H]3O[C@H]3C3=C[C@H]1OC3=O)O2 |  | > 200 | 1.62 |
| COc1cc(O)c(C(=O)/C=C/c2ccc(OC)c(OCc3ccccc3)c2)c(OC)c1 | inactive |  |  |
| O=C1OC(c2cccc3ccccc23)c2ccccc21 (stereo not drawn) |  | > 501 | 26.3 |
| COc1ccc(C(C)NNC(=O)c2ccncc2)cc1OC (stereo not drawn) |  | > 200 | 30.2 |
| c1ccc(CC2COC(c3cccs3)=N2)cc1 (stereo not drawn) |  | > 200 | 126 |
| O=C(Nc1ccc(S(=O)(=O)Nc2nccs2)cc1)c1cccnc1Nc1cccc(Cl)c1 | inactive |  |  |
| Cc1cc2ccc([N+](=O)[O-])cn2c1 |  | > 200 | 115 |
| Nc1ncnc2c1ccn2C/C=C/CO |  | > 200 | > 200 |
| CN=C(NCCCOC)c1ccc(NC(=O)c2ccc(C(=O)Nc3ccc(C(=NC)NCCCOC)cc3)c([N+](=O)[O-])c2)cc1 |  | > 200 | 19.1 |
| CCCC(=O)Oc1ccc2c(C)cc(=O)oc2c1 |  | > 200 | > 200 |
| CC1OC(O[C@H]2C3C=CO[C@@H](OC4OC(CO)C(O)C(O)C4O)C3[C@@]3(COC(=O)/C=C/c4ccc(O)cc4)O[C@@H]23)C(O)C(O)C1O (stereo partly drawn) |  | > 200 | > 200 |
| O=C(/C=C/c1ccc(Cl)c(Cl)c1)C1CCC(Cl)CC1 (stereo not drawn) |  | > 6.31 | > 6.31 |
| O=C1CCCC2=C(N1)C(=O)C=CC2=O |  | > 955 | 8.71 |
| O=C1c2ccccc2C2(c3ccc(Cl)cc3)N[C@@H]3CCCC[C@@H]3N12 (stereo partly drawn) |  | > 200 | > 200 |
| CC1=Nc2ccccc2N=C(C)C1 |  | > 200 | > 200 |
| O=C(O)CC1CCN(C(=O)c2ccccc2)C(Cc2c[nH]c3ccccc23)C1O (stereo not drawn) |  | > 126 | > 126 |
| Cc1nc(C)c2c(n1)Oc1ccc3ccccc3c1C2 |  | > 49 | > 49 |
| CN(C)CCCNc1ccc2c(=O)n(CCN(C)C)c(=O)n3c4ccccc4c(=O)c1c23 |  | > 0.2 | 0.0776 |

| SMILES | outcome | EC50 [µM] | IC50 [µM] |
| --- | --- | --- | --- |
| COC1C(OC(=O)/C=C/C=C/C=C/C=C\C(=O)O)CCC2(CO2)C1C1(C)OC1CC=C(C)C (stereo not drawn) |  | 49 | > 200 |
| O=C1/C=C/C(=O)OCCCC(=O)/C=C/C(=O)OCCC1 | inactive |  |  |
| CCOC(=O)C(Cl)(NC(=O)c1c(F)c(F)c(F)c(F)c1F)C(F)(F)F (stereo not drawn) | inactive |  |  |
| CCOC(=O)c1c(N)sc2c1C(C(=O)OCC)CC2 (stereo not drawn) |  | > 200 | 174 |
| OC/C=C/c1ccc(O)c(O)c1 | inactive |  |  |
| O=S(=O)(O)C(I)S(=O)(=O)O |  | > 200 | > 200 |
| O=c1cc(CCc2ccccc2)oc2c(O)ccc(O)c12 | inactive |  |  |
| C[N+](C)(C)CC1CCC/C1=N/O (stereo not drawn) |  | > 832 | > 832 |
| COc1ccc(N2C(=O)/C(=C\c3cc(OC)c(OC)c(OC)c3)S(=O)(=O)C2c2ccccc2)cc1 (stereo not drawn) |  | > 200 | 41.7 |
| O=S1(=O)CS(=O)(=O)OCCCCO1 |  | > 1070 | 63.1 |
| CC(C)C1C(=O)N(c2c(F)c(F)c(F)c(F)c2F)C(=S)N1CCS(=O)c1ccccc1 (stereo not drawn) |  | > 200 | 9.33 |
| CNC(=S)N/N=C1\CC(c2ccccc2)Oc2ccccc21 (stereo not drawn) | inactive |  |  |
| COc1ccc(-n2nnnc2C2(Nc3ccccc3)CCN(Cc3ccccc3)CC2)cc1 |  | > 200 | > 200 |
| Cc1c(C)c2c(c(N)c1C#N)C(=O)N(NC(=O)c1ccccc1)C2=O |  | > 200 | 186 |
| CC(=O)OC1CC2CC(=O)CC1N2C (stereo not drawn) |  | > 200 | > 200 |
| CCCC1C(C#N)(C#N)C(C#N)=C(N)C1(C)C(C)=O (stereo not drawn) |  | > 200 | > 200 |
| c1ccc(P(OCCCCOP(c2ccccc2)c2ccccc2)c2ccccc2)cc1 |  | > 200 | 85.1 |
| NS(=O)(=O)c1ccc(NC(=O)Nc2ccc(F)cc2)cc1 |  | > 200 | 74.1 |
| COc1cc(CC(=O)O)c(C(=O)c2ccc([N+](=O)[O-])cc2)cc1OC |  | > 200 | > 200 |
| COC(=O)CCNc1c2ccccc2nc2cccc([N+](=O)[O-])c12 |  | > 0.2 | 0.0794 |
| CN(C)c1ccc(/C=C2/Oc3ccc(Cl)cc3C2=O)cc1 |  | > 4.79 | > 4.79 |
| O=C(C=Nc1ccccc1S)c1cccs1 |  | > 5.89 | > 5.89 |

| SMILES | outcome | EC50 [µM] | IC50 [µM] |
| --- | --- | --- | --- |
| Cc1ccc2cc([N+](=O)[O-])c3ccc(C)nc3c2n1 |  | > 200 | 3.16 |
| CCOC(=O)/C(=C\c1ccc(N(CCC#N)CCC#N)cc1)NC(=O)c1cc([N+](=O)[O-])ccc1Cl |  | > 10.5 | > 10.5 |
| CCCc1noc(C(F)(F)Sc2ncccn2)n1 |  | > 200 | > 200 |
| Cc1cc2c(c(C(=O)NCC(=O)N[C@@H](C)C(=O)OCc3ccccc3)c1)Oc1c(cc(C)cc1C(=O)NCC(=O)N[C@@H](C)C(=O)OCc1ccccc1)S2 |  | > 200 | 7.76 |
| Cc1cc(NC(=O)c2ccc(N=Nc3cc(S(=O)(=O)O)c4ccccc4c3O)cc2)ccc1N=Nc1ccc2cc(S(=O)(=O)O)cc(S(=O)(=O)O)c2c1 | active |  |  |
| O=c1[nH]c(Nc2nc3ccccc3[nH]2)nc(O)c1-c1ccccc1 |  | 162 | > 200 |
| C=C1CC(Cn2ccc(=O)[nH]c2=O)(c2ccc(-c3ccccc3)cc2)OC1=O (stereo not drawn) |  | > 20 | 0.479 |
| COc1cc(C(C)c2cc3c(cc2OCCO)OCO3)cc(OC)c1OC (stereo not drawn) |  | > 347 | 0.447 |
| Clc1ccnc2c1ccc1c(Cl)ccnc12 |  | > 75.9 | 13.8 |
| COc1ccc2c(c1)CCC1C(=O)NN=C21 (stereo not drawn) |  | > 776 | > 776 |
| COc1cc2cc(C(=O)N3CC(CCl)c4ccc([N+](C)(C)Cc5ccccc5[N+](=O)[O-])cc43)[nH]c2c(OC)c1OC (stereo not drawn) |  | > 20 | 2.24 |
| CC1OC=CC(=O)C1O (stereo not drawn) | inactive |  |  |
| Cc1nnc(Nc2ccc(Cl)cc2)o1 |  | > 200 | > 200 |
| C/C(=N/NC(=S)Nc1ccccc1Cl)c1cccc(/C(C)=N\NC(=S)Nc2ccccc2Cl)n1 |  | > 200 | 87.1 |
| CNNc1ncnc2c1cnn2C |  | > 794 | > 794 |
| S=c1nc(COc2ccc(Cl)cc2Cl)[nH][nH]1 |  | > 67.6 | 51.3 |
| CN1CC(C(=O)NC2(C)OC3(O)C4CCCN4C(=O)C(Cc4ccccc4)N3C2=O)C=C2c3cccc4[nH]cc(c34)CC21 (stereo not drawn) |  | > 61.7 | 28.8 |
| CCOC(=O)/C(C#N)=C1\SS/C(=C(/C#N)C(=O)OCC)S1 |  | > 200 | 19.5 |
| CCc1cccc(CC)c1NC(=O)C(=O)Cc1nc2ccccc2o1 |  | > 537 | > 537 |
| O=C(CCCl)NNC1=NCCN1 |  | > 200 | > 200 |
| S=C1C(CCCOCc2ccccc2)C2CCCC23CC2(CCN13)OCCS2 (stereo not drawn) |  | > 200 | 39.8 |
| NCCCCC(NC(=O)C(CO)NC(=O)C(CO)NC(=O)CN)C(=O)NC(CO)C(=O)NC(CCCCN)C(=O)N1CCCC1C(=O)NC(CCCCN)C(=O)NC(CC(=O)O)C(N)=O (stereo not drawn) (H-GSSKSKPKD-NH2; configuration not given here) |  | > 269 | > 269 |

| SMILES | outcome | EC50 [µM] | IC50 [µM] |
| --- | --- | --- | --- |
| c1ccc(COC2(OCc3ccccc3)CC3OC2C2NN=NC32)cc1 (stereo not drawn) |  | > 141 | 9.77 |
| CC(NC(=O)CNC(=O)C(N)CO)C(=O)NC(CCC(N)=O)C(=O)NC(CCCCN)C(=O)N1CCCC1C(=O)NC(CCC(=O)O)C(=O)NC(CCC(=O)O)C(=O)NC(CCC(=O)O)C(=O)NC(CO)C(=O)NC(CO)C(=O)NC(CC(N)=O)C(=O)NC(C)C(=O)NC(Cc1cnc[nH]1)C(=O)NC(CO)C(=O)O (stereo not drawn) (H-SGAQKPEEESSNAHS-OH; configuration not given here) |  | > 100 | > 100 |
| CCOc1ccc(N=Cc2ccc3cc(C)ccc3n2)cc1 | inactive |  |  |
| Cn1c(=O)c2nc(N3CCOCC3)cnc2n(C)c1=O |  | > 200 | > 200 |
| CCOP(=O)(C=C=C1CCC2[C@@H]3CCc4cc(OC)ccc4C3CC[C@]12C)OCC (stereo partly drawn) |  | > 200 | 2.09 |
| O=C(Nc1ccc2[nH]c(=S)sc2c1)Nc1ccccc1F |  | > 200 | 33.1 |
| COc1ccc2oc(=N)c(C(=O)Nc3ccccc3)cc2c1 |  | > 200 | 12 |
| O=c1c(-c2ccc(O)cc2)coc2c(O)c(O)ccc12 |  | > 200 | 28.8 |
| CC(C)(C)OC(=O)NCC(=O)NC1C/C(=N\O)c2sccc21 (stereo not drawn) |  | > 200 | > 200 |
| Clc1ccc(CSc2cnnc3c(Br)cccc23)c(Cl)c1 |  | > 24.5 | > 24.5 |
| COc1cc2cnc3c4cc(OC)c(OC(C)C)cc4ccc3c2cc1OC |  | > 5.37 | > 5.37 |
| O=C(N/C(=C\c1cc(Cl)ccc1Cl)c1nc2ccc(Cl)cc2[nH]1)c1ccccc1 | inactive |  |  |
| CCC1=C(C[C@H]2NCCc3cc(OC)c(OC)cc32)C[C@H]2c3cc(OC)c(OC)cc3CCN2C1 | inactive |  |  |
| Nc1nc(Cl)c(N)c(NCC2(CO)CCC(OCc3ccccc3)C2)n1 (stereo not drawn) |  | > 200 | 26.9 |
| COc1cccc(C2c3cc4c(cc3OC(O)C2C)OCO4)c1OC (stereo not drawn) |  | > 200 | 1.51 |
| C=C(C)[C@@H]1CC[C@@H](C)[C@](O)([C@@H]2C[C@@H]([C@H](COC(=O)c3ccccc3)OC(=O)c3ccccc3)OC2=O)C1 |  | > 100 | > 100 |
| O=C(Nc1ccc([N+](=O)[O-])cc1)C1C(=O)C(=O)N(c2ccc([N+](=O)[O-])cc2)C1=O (stereo not drawn) |  | > 234 | > 234 |
| CC1(C)COC(c2ccc(C(F)(F)F)cc2C(O)c2ccc3ccccc3c2)=N1 (stereo not drawn) | inactive |  |  |
| COc1ccc2c(ccc3[nH]c4c(C)cnc(NCCCN)c4c32)c1 |  | > 2 | 0.219 |
| Cc1cc(C)cc(N(C2C3CCC(C)(C2O)C3(C)C)S(=O)(=O)c2ccccc2)c1 (stereo not drawn) |  | > 200 | 24.5 |
